In PubChem BioAssay (NCI):
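Exposure lasted 48 hours, with cells grown in 96-well plates and compounds tested at five concentrations. At the GI50, growth is halved. TGI: concentration producing complete growth inhibition.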

How the values were obtained:
Assay in all cases: DTP human tumour cell line panel, 48 h
SF-268 CNS = test system: SF-268 CNS
SW-620 colon = test system: SW-620 colon
HOP-62 NSCLC = test system: HOP-62 NSCLC
OVCAR-4 ovarian = test system: OVCAR-4 ovarian
NCI-H23 lung = test system: NCI-H23 lung
OVCAR-8 ovarian = test system: OVCAR-8 ovarian
UACC-62 melanoma = test system: UACC-62 melanoma
OVCAR-5 ovarian = test system: OVCAR-5 ovarian
SF-295 CNS = test system: SF-295 CNS
MDA-MB-435 = test system: MDA-MB-435

Row | SMILES | TGI (SF-268 CNS) [µM] | TGI (SW-620 colon) [µM] | TGI (HOP-62 NSCLC) [µM] | TGI (OVCAR-4 ovarian) [µM] | TGI (NCI-H23 lung) [µM] | TGI (OVCAR-8 ovarian) [µM] | TGI (UACC-62 melanoma) [µM] | TGI (OVCAR-5 ovarian) [µM] | TGI (SF-295 CNS) [µM] | GI50 (SW-620 colon) [µM] | GI50 (HOP-62 NSCLC) [µM] | GI50 (OVCAR-4 ovarian) [µM] | GI50 (NCI-H23 lung) [µM] | GI50 (OVCAR-8 ovarian) [µM] | GI50 (UACC-62 melanoma) [µM] | GI50 (SF-295 CNS) [µM] | GI50 (SF-268 CNS) [µM] | GI50 (OVCAR-5 ovarian) [µM] | TGI (MDA-MB-435) [µM] | GI50 (MDA-MB-435) [µM]
1 | CC(=O)CC(=O)N(CCN(C(=O)CC(C)=O)c1ccccc1)c1ccccc1 | > 100 | > 100 | > 100 | > 100 | > 100 | > 100 | > 100 | > 100 | > 100 | – | – | – | – | – | – | – | – | – | – | –
2 | CN1CCC23c4c5ccc(O)c4OC2C(=NN=C2CCC4(O)C6Cc7ccc(O)c8c7C4(CCN6C)C2O8)CCC3(O)C1C5 (stereo unspecified) | > 100 | > 100 | > 100 | > 100 | > 100 | > 100 | > 100 | > 100 | > 100 | – | – | – | – | – | – | – | – | – | – | –
3 | CC1=CC(=O)C(C)(C2=NC(C)(C)CO2)c2ccccc21 (stereo unspecified) | > 100 | > 100 | > 100 | > 100 | > 100 | > 100 | > 100 | – | > 100 | – | – | – | – | – | – | – | – | – | – | –
4 | O=c1c(O)c(-c2ccc(O)c(O)c2)oc2cc(O)ccc12 | > 74.1 | 60.1 | > 100 | > 100 | 31.8 | 56.3 | 39.5 | 42.1 | 54.4 | – | – | – | – | – | – | – | – | – | – | –
5 | CCOC(=O)C1Cc2c(ccc(OC)c2OC)C(=O)C1N (stereo unspecified) | – | > 100 | > 100 | > 100 | > 100 | > 100 | > 100 | > 100 | > 100 | – | – | – | – | – | – | – | – | – | – | –
6 | CCC[CH2][Sn]1([CH2]CCC)[O]C(c2ccccn2)S(=O)(=O)[O]1 (stereo unspecified) | – | 3.02 | 43 | 20.1 | 3.5 | 4.79 | 3.78 | – | 8.26 | 1.56 | 28.1 | 6.86 | 1.72 | 2.06 | 1.84 | 2.94 | – | – | – | –
7 | O=C(O)/C(Cl)=C(\Cl)Nc1cccc(C(F)(F)F)c1 | > 100 | > 100 | > 100 | > 100 | > 100 | > 100 | > 100 | – | > 100 | – | – | – | – | – | – | – | – | – | – | –
8 | CC1(C)CCC(=O)c2c(O)ccc(O)c21 | > 100 | > 100 | – | > 100 | > 100 | > 100 | > 100 | > 100 | > 100 | – | – | – | – | – | – | – | – | – | – | –
9 | CCCCCCCCCOC(=S)NC | 38.5 | 40.9 | – | 42.2 | 34.6 | 44.9 | 53.9 | 38.1 | 67.5 | – | – | – | – | – | – | – | – | – | – | –
10 | CC(=O)O[C@H](C[C@H](C(C)C)N(C)C(=O)[C@@H](NC(=O)[C@H]1CCCCN1C)C(C)C)c1nc(C(=O)N[C@@H](Cc2ccccc2)C[C@H](C)C(=O)O)c(C)s1 | > 25 | > 25 | > 25 | > 25 | > 25 | > 25 | > 25 | > 25 | > 25 | < 0.0025 | < 0.0025 | > 25 | < 0.0025 | < 0.0025 | < 0.0025 | < 0.0025 | < 0.0025 | 0.0085 | – | –
11 | CC(=O)[CH-]C(=O)c1ccccc1.CC(=O)[CH-]C(=O)c1ccccc1.O=C([O-])C[O-].O=C([O-])C[O-].[Ti+4] | > 100 | > 100 | > 100 | > 100 | – | > 100 | > 100 | > 100 | > 100 | 53.8 | 58.7 | 41 | – | 77 | > 100 | 50.7 | > 100 | > 100 | – | –
12 | CCc1ccccc1NC(=O)/C(CC(=O)c1c(C)n([O-])c2ccccc2[n+]1=O)=N\NS(=O)(=O)c1ccc(C)cc1 | > 100 | > 100 | > 100 | 90.4 | > 100 | > 100 | 67 | > 100 | > 100 | – | – | – | – | – | – | – | – | – | – | –
13 | CSc1ccc(-c2cn3ccsc3n2)c(O)c1 | > 100 | > 55.1 | > 100 | 98.7 | > 100 | > 100 | > 100 | > 100 | > 100 | – | – | – | – | – | – | – | – | – | – | –
14 | COc1cc2[nH]c(C(=O)c3cc(OC)c(OC)c(OC)c3)c(N)c2cc1C#CCO | 73.4 | > 100 | > 100 | > 100 | > 100 | > 100 | > 100 | > 100 | – | 0.294 | 0.322 | 0.528 | 0.508 | 0.533 | 7.56 | – | 0.957 | 3.63 | – | –
15 | C=C1C(=O)O[C@@H]2[C@H]1CC[C@H](C)[C@]1(O)CCC(=O)[C@@]21C | > 10 | > 10 | > 10 | > 10 | > 10 | > 10 | > 10 | – | > 10 | – | – | – | – | – | – | – | – | – | > 10 | –
16 | C/C(=N\O)c1sc(-n2nc(-c3ccccc3)cc2-c2ccccc2)nc1C | 19.8 | 19.6 | 22.2 | – | 15.1 | 18.1 | 16.9 | – | 20.2 | – | – | – | – | – | – | – | – | – | – | –
17 | Cc1cc(N(CCC#N)CCC#N)ccc1/C=C1/CN(N2C(=O)/C(=C/c3ccc(N(CCC#N)CCC#N)cc3C)N=C2c2ccccc2)C(c2ccccc2)=N1 | > 100 | > 100 | > 100 | > 100 | > 100 | > 100 | > 100 | > 100 | > 100 | – | – | – | – | – | – | – | – | – | – | –
18 | Cc1cc(C)c(C(=O)O)c(N)c1O | > 100 | > 100 | > 100 | > 100 | > 100 | > 100 | > 100 | > 100 | > 100 | – | – | – | – | – | – | – | – | – | – | –
19 | CC(C)(Cl)CCC1=C(Cl)C(=O)c2ccccc2C1=O | 11.3 | 3.63 | 17 | 2.89 | 9.93 | 5.03 | – | 5.6 | 11 | 1.74 | 4.71 | 1.55 | 2.82 | 2.03 | – | 3.22 | 3.07 | 2.25 | 4.62 | 2.15
